For the assay, the system named is humane Neuroblastomazellen (SH-SY5Y, ATCC Nummer CRL-2266). Nature of the assay: Serotonin release in SH-SY5Y neuroblastoma cells (Serotonin-ELISA). It is filed as cell-based, human. The note with it: SH-SY5Y-Zellen, 10 µM test substance, 5 min stimulation, Krebs-Ringer-HEPES Puffer pH 6,2; relative to 10 µM Nonivamid. As for the experimental part:
Als Zellmodell für die Ausschüttung des Neurotransmitters Serotonin werden humane Neuroblastomazellen (SH-SY5Y, ATCC Nummer CRL-2266) verwendet. Die Kultivierung erfolgt bei 37 °C und 5 % CO2-Gehalt mit einer Mischung, die zu gleichen Teilen aus Eagle's Minimum Essential Medium (EMEM) und F12 Medium (jeweils mit 10 % FBS und 1 % Penicillin/Streptomycin) besteht. Zur Bestimmung der Serotoninfreisetzung werden die Zellen mit Trypsin geerntet und nach einer Vitalitätsprüfung durch Trypanblaufärbung in definierter Zellzahl in 24-well Platten (Corning cell culture treated) ausgesät.
Nach 5-minütiger Stimulierung von 90.000 humanen Neuroblastomazellen (SH SY5Y) mit 60 µl Krebs-Ringer-HEPES Puffer, 0,1 % Ascorbinsäure, pH 6,2, mit oder ohne Zusatz von 10 µM einer der Verbindungen 1-4, , bzw. 10 µM Nonivamid als Positivkontrolle wird der Serotoningehalt mit Hilfe eines enzymbasierten Nachweisverfahrens (Serotonin-ELISA sensitiv, DLD Diagnostica, Hamburg, Deutschland) ermittelt. Tabelle 1. Serotonin-Freisetzung in SH-SY5Y-Zellen nach Stimulierung mit je 10 µM von Verbindungen nach Formel I.
In general terms: An ELISA detects its analyte on a solid surface through an enzyme-linked reagent.

We go through six compounds from patent publication EP3474833B1, “CINNAMYL ALCOHOL DERIVATIVE FOR USE IN REDUCING APPETITE AND FOR GENERATING THE FEELING OF BEING FULL” (Symrise AG, priority 2016, dated 2017).

Turning to `CCCCCCCCC(=O)NCc1ccc(O)c(OC)c1` [Nonivamid, N-Nonanoylvanillylamin, reference compound], the “Serotoninfreisetzung [% der Positivkontrolle]” value is listed as 100 % der Positivkontrolle.
Then `OCC=Cc1ccccc1` [Verbindung 1, Cinnamylalkohol], with 129.29 % der Positivkontrolle.
Under `CCC(=O)OCC=Cc1ccccc1` [Verbindung 4, Cinnamylpropionat] stands 115.57 % der Positivkontrolle; under `CC(C)C(=O)OCC=Cc1ccccc1` [Verbindung 6, Cinnamylisobutyrat], 120.69 % der Positivkontrolle; under `CC(C)CC(=O)OC/C=C/c1ccccc1` [Verbindung 7, Cinnamylisovalerianat], 118.47 % der Positivkontrolle.
As for `O=C(C=Cc1ccccc1)OCC=Cc1ccccc1` [Verbindung 11, Cinnamylcinnamat], the “Serotoninfreisetzung [% der Positivkontrolle]” value turned out to be 120.83 % der Positivkontrolle.
